Measurements as given in ChEMBL document CHEMBL1130070, “Zinc ejection as a new rationale for the use of cystamine and related disulfide-containing antiviral agents in the treatment of AIDS” (J Med Chem, 1997).

Assays:
CEM-SS [1] = test: Antiviral activity against HIV-1 in CEM-SS cells using […] assay; I = No antiviral activity; assay type: functional, cell-based, Homo sapiens
[2] = biological target: Human immunodeficiency virus type 1 reverse transcriptase (Human immunodeficiency virus 1, UniProt Q72547); test: Compound was tested for the effect on HIV-1 Reverse Transcriptase; NI = No inhibition
[3] = system: Human immunodeficiency virus 1; test: Compound was tested for binding of HIV-1 to CEM-ss cells; NI = No inhibition; assay type: functional, organism-based
CEM-SS [4] = test: Antiviral activity against HIV-1ADA in […]; assay type: functional, cell-based; conditions: Homo sapiens
CEM-SS [5] = test: Antiviral activity against HIV-1ADA in […]; I = No antiviral activity; assay type: functional, cell-based, Homo sapiens
CEM-SS [6] = test: Antiviral activity against HIV-1 in CEM-SS cells using […] assay; assay type: functional, cell-based; conditions: Homo sapiens
[7] = biological target: Human immunodeficiency virus type 1 protease (Human immunodeficiency virus 1, UniProt Q72874); test: Compound was tested for effects on HIV-1 protease; NI = No inhibition

Row | Structure (SMILES) | EC50 (CEM-SS [1]) | I50 [2] | I50 [3] | IC50 (CEM-SS [4]) | EC50 (CEM-SS [5]) | IC50 (CEM-SS [6]) | I50 [7] | EC50 (CEM-SS [4]) | EC50 (CEM-SS [6])
1 | C/C(=C(\CCO)SS/C(CCO)=C(/C)N(C=O)Cc1cnc(C)nc1N)N(C=O)Cc1cnc(C)nc1N | Not Active | Not Active | Not Active | > 100 µM | Not Active | 535 µM | Not Active | – | –
2 | NCCS [CYSTEAMINE] | – | Not Active | Not Active | > 100 µM | – | 71 µM | Not Active | 53.7 µM | 41.6 µM
3 | CCN(CC)C(=S)SSC(=S)N(CC)CC [DISULFIRAM] | Not Active | Not Active | Not Active | > 100 µM | Not Active | 3.9 µM | Not Active | – | –
4 | CCN(CC)C(=S)S [DITIOCARB] | Not Active | Not Active | Not Active | > 100 µM | Not Active | > 100 µM | Not Active | – | –
5 | NCCSSCCN [CYSTAMINE] | – | Not Active | Not Active | > 100 µM | – | 172 µM | Not Active | 4.3 µM | 56.2 µM
